In patent publication US9399194B2, “Methods for treating a liquid using draw solutions” (priority 2014, dated 2016):
“And” between values parts separate entries of the source, which are not always exact repeats. Equal values may be shown once.

What was measured:
[1] = Freezing point depression osmometry: maximum concentration and osmotic pressure; assay type: physicochemical; settings: for maximum osmotic pressure (projected): full/high concentration, projected from dilute solution freezing point data
Description: (§1) House deionized (DI) water was used in all experiments. CHP was obtained from Alfa Aesar and used as received. All equipment was used in accordance with manufacturer specifications unless stated otherwise. Freezing point depression osmometry was performed using an Advanced Instruments, Inc. Model 3250 Osmometer. Viscosity measurements were made using the falling bob method with a Cambridge Applied Systems VL4100 viscometer.
The diamond symbols indicate molality of amine and ammonium ions. The square symbols indicate the total species molality including amines, ammonium ions, and carbonate species. […] There is strong evidence that as osmotic pressures increase, there are diminishing returns in terms of kinetics for osmotic flux. For any osmotic pressure over 370 atm, the osmotic pressure of a saturated NaCl solution is likely to be less important than solute and solution properties like diffusion and viscosity.
The maximum osmotic pressures of different tertiary amines were determined by osmometry.

[2] = Draw solution degassing monitored by freezing point osmometry; assay type: physicochemical; settings: for temperature needed to degas: ambient atmospheric pressure, comparable kinetics
Source text: To determine the relative performance of CHP and DMCA at different temperatures, draw solutions containing CHP or DMCA were recirculated through a segment of a heat exchanger featuring a high surface area honeycomb composition design with a temperature regulated fluid recirculated through the other path. Concentration data was collected with a freezing point osmometer by conventional techniques. Osmolality is an excellent predictor for the pressure needed to remove dissolved solids by filtration. Generally, 1 Osm/Kg corresponds to about 24.5 atm.
Upon addition of one atm of CO2 to the draw solution of Example 1, the oily, nonpolar CHP readily produced the corresponding polar ammonium bicarbonate acid-base salt. To test the degassing process, CHP-ammonium bicarbonate solutions were recirculated through a high surface area heat exchanger with a gear pump while the other loop of the heat exchanger was attached to a recirculating heat bath that was set to the desired temperature. The experiment progression was monitored with a freezing point osmometry. The degassing process was intended to reduce the solution osmotic pressure, reducing it to nothing or minimizing it for a low pressure RO treatment. The progress of the degassing reaction was measured by osmometry, which corresponds to osmotic pressure and can be rapidly obtained. For comparison, a draw solution including DMCA-H^+ was also investigated. In the case of DMCA at full concentration, it will start degassing at a temperature as low as 25° C., requiring viscosity measurements to be made at 15° C. However, DMCA requires nearly reflux conditions to fully remove the CO2.

[3] = at 25° C.; cited from earlier work
[4] = Forward osmosis flux experiments (FO mode) against pure water; settings: about 30 wt % CHP-H+ or 0.9 mol/kg NaCl against pure water, identical membranes
Description: All flux experiments were conducted in “FO mode” with the membrane's active layer facing the feed solution. The process was allowed 1-5 minutes to equilibrate and the average of the next 10 minutes was reported as the “initial flux.”
Using identical membranes and test conditions, the water flux for CHP-H^+ was 10 kg/m^2 hr compared with 10 kg/m^2 hr for the NaCl solution.

[5] = saturated NaCl solution; cited from earlier work
[6] = Viscosity and density of the CHP-H+ draw solution; assay type: physicochemical
Description: as §1
DI water (229.7 g) and CHP (221.2 g, 1.32 mol) were placed in a bottle equipped with a gas diffuser and exposed to a steady stream of carbon dioxide for 3 hours while being stirred with a magnetic stir bar. The resulting product was a clear homogeneous solution with a mass of 491.4 g, a solution viscosity of 44.0 cP at 15.0° C., and a density of 1.09 g/ml at 21° C. After exposure to the carbon dioxide, the solution contained CHP-H^+ (i.e., CHP in its polar form).

In the case of C1CCC(N2CCCCC2)CC1 [CHP, 1-cyclohexylpiperidine], the “amine:carbonic acid ratio” value [1] is reported as 1.00, the maximum osmotic pressure ([1]; by osmometry, FIG. 4) is reported as “greater than 250 atm” and the “maximum osmotic pressure (projected)” value [1] is reported as 536 atm and > 500 atm. The “temperature needed to degas” value [2] was “about 70 °C” and the vapor pressure [3] was “about 0.1 mm Hg”.
In the case of CN(C)C1CCCCC1 [DMCA, N,N-dimethylcyclohexylamine], the “temperature needed to degas” value [2] is listed as “about 95 °C”, the “temperature at which degassing starts” value ([2]; full concentration) is listed as 25 °C and the vapor pressure [3] is listed as “about 2.2 mm Hg”.
For [Cl-].[Na+] [NaCl, reference compound], the “water flux (initial flux)” value [4] is listed as 10 kg/m^2 hr and the osmotic pressure [5] is listed as 370 atm.
For CN(C)C1CCCCC1.O=C(O)O [DMCA-H^+, dimethylcyclohexylammonium bicarbonate], the “maximum osmotic pressure (projected)” value [1] was roughly 835 atm, the osmolality after degassing ([2]; 70° C., after 4-6 hours) was 2.4 Osm/Kg and the osmolality after degassing ([2]; 95° C., after 6.5 hours) was 0.2 Osm/Kg.
With C1CCC(N2CCCCC2)CC1 [CHP-H^+] the solution viscosity ([6]; draw solution of Example 1, at 15.0° C.) was 44.0 cP, the density ([6]; draw solution of Example 1, at 21° C.) was 1.09 g/mL and the “maximum osmotic pressure (projected)” value [1] was “greater than 500 atm”. The “water flux (initial flux)” value [4] was 10 kg/m^2 hr, the osmolality after degassing ([2]; 70° C., after extended treatment) was 0.2 Osm/Kg and the osmolality after degassing ([2]; 70° C., within 3 hours) was 0.6 Osm/Kg.
